Test system: total micro-organism
Assay: Total microbial (plate) count of spent brewer's / wet distiller's grains stored at ambient temperature
Assay type: cell-based
Description: Samples of spent brewer's grains were drawn from the discharge line of a brewery in South Africa. The samples, packed in dry ice in a cold box, were transported over a distance of approximately 40 kilometres to a laboratory. At the laboratory, the samples were thoroughly mixed and initially split into a first portion (Portion 1) and a second portion (Portion 2). The second portion was about twice the size of the first. Portion 1 was left untreated. Material produced from Portion 1 and Portion 2 is designated below using the code “AR” (as received).
Portion 2 was placed on a clean, standard, laboratory screen deck with 1.4 mm apertures supported from below. As much water as possible was manually squeezed out with a clean flat plastic disc and the sample was then manually remixed after the squeezing. The squeezed material was then split into a third portion (Portion 3) and a fourth portion (Portion 4) of approximately the same size. Material produced from Portion 3 and Portion 4 is designated below using the code “SO” (squeezed).
Portion 4 was added to a high speed kitchen food-shredder and shredded for about two minutes. The shredded material was then returned to the 1.4 mm aperture screen and squeezed again, as described above, and manually remixed again after the second squeezing to produce a shredded and squeezed portion (Portion 5). Material produced from Portion 5 is designated below using the code “SH” (shredded).
Samples of Portion 1 (“AR”), Portion 3 (“SO”) and Portion 5 (“SH”) were then delivered to a microbiological testing facility about 15 kilometres from the treatment laboratory. Each was tested for initial total microbial, yeast and mould counts, respectively.
Separate untreated samples were similarly stored under insect-proof screens at ambient temperature for seven days (as shown in Tables 1 and 2). During the trial period the ambient temperature ranged from 11 to 33 degrees C.
After exposure to the environment for seven days, all of the samples were tested at a South African National Accreditation System (SANAS) approved microbiological testing facility. Each was tested for total micro-organism, yeast and mould counts to determine the affect of the various treatments.
Samples of spent brewer's grains were drawn from the discharge line of a brewery in South Africa.
At the laboratory, the samples were thoroughly mixed and initially split into a first portion (Portion 1) and a second portion (Portion 2). Portion 1 was left untreated. A sample of Portion 1, was delivered immediately to a microbiological testing facility about 15 kilometres away from the treatment laboratory and was tested for initial total microbial, yeast and mould counts, respectively.
Samples from Portion 2 were subjected to treatment with varying amounts of a powdered, commercially-available calcium oxide containing approximately 94% calcium oxide (CaO) as shown in Table 32. The treatments varied from 2.5 to 10% (w/w) calcium oxide addition. The samples were stored in batches (according to the calcium oxide treatment) under insect-proof screens at ambient temperature for fifty six days. […] During the trial period the ambient temperature ranged from 10 to 30 degrees C. As this period was the southern hemisphere spring/early summer, the humidity as well as ambient temperatures varied widely.
Samples from each treatment were drawn every seven days. No further calcium oxide treatment or agitation took place after the initial mix. In each case the entire sample was isolated and delivered to the microbiological testing facility.
(§1) In this trial the same source of wet distiller's grains (again with now partial water removal prior to treatment) was treated.
as §1

[1] = dose 5% w/w, distiller's grains not de-watered, Examples 16-18

With `[O]=[Ca]` [calcium oxide] the “shelf life of fermentation residue” value (2.5% (w/w) calcium oxide powder added to the fermentation residue) was “at least 10 days”, the Total plate count (5% CaO (w/w) powder, week 1) was 2770 cfu/gram and the Total plate count (5% CaO (w/w) powder, week 2) was 200 cfu/gram. It also gave a Total plate count (5% CaO (w/w) powder, week 3) of 4800 cfu/gram, a Total plate count (5% CaO (w/w) powder, week 4) of 10 cfu/gram and a Total plate count (5% CaO (w/w) powder, week 5) of 10 cfu/gram. The “shelf life of fermentation residue” value (10% (w/w) calcium oxide added to the fermentation residue) was “at least 63 days”, the “effect on micro-organism levels” value (calcium oxide 0.5% (w/w), Example 14) was “only a very limited effect” and the “suppressed microbial levels up to day” value (calcium oxide 1.0% (w/w), Example 14) was 8 days. The preservation effect period (calcium oxide 2.5% (w/w), Example 9) was “only the first week”, the preservation effect period (calcium oxide 5.0% (w/w), Example 9) was 49 days and the preservation effect period (calcium oxide 10% (w/w), Example 9) was 56 days. The preservation period (calcium oxide 10% (w/w), Example 18) was 9 week, the “total microbial count after treatment” value (calcium oxide 10% (w/w), spent brewer's grains, initial count 3,300,000) was “zero” and the preservation effect period (calcium oxide levels of 2.0% and 2.5% (w/w), Example 14) was 10 days. For the same molecule, the microbial counts (calcium oxide powder 5% and 10% (w/w), end of the 9 week period) was less than 10 to 20 cfu/gram, the “preservation time with total microbial counts <10 cfu/g” value [1] was “≧9 weeks” and the “preservation time with total microbial counts <100 cfu/g” value [1] was “≧9 weeks”. For the same molecule, the “preservation time with total microbial counts <1000 cfu/g” value [1] was “≧9 weeks”, the “preservation time with total microbial counts <10 cfu/g” value (dose 10% w/w, distiller's grains not de-watered, Examples 16-18) was “≧9 weeks” and the Total plate count (wet distiller's grains, 0.5% CaO (w/w), day 1) was 1.01E+06 cfu/gram. For the same molecule, the Total plate count (wet distiller's grains, 0.5% CaO (w/w), day 2) was 680000 cfu/gram, the Total plate count (wet distiller's grains, 0.5% CaO (w/w), day 3) was 35000 cfu/gram and the Total plate count (wet distiller's grains, 0.5% CaO (w/w), day 6) was 5.60E+07 cfu/gram. The Total plate count (wet distiller's grains, 0.5% CaO (w/w), day 8) was 3.30E+06 cfu/gram, the Total plate count (wet distiller's grains, 1.0% CaO (w/w), day 1) was 3.50E+06 cfu/gram and the Total plate count (wet distiller's grains, 1.0% CaO (w/w), day 2) was 3600 cfu/gram. It also gave a Total plate count (wet distiller's grains, 1.0% CaO (w/w), day 3) of 720 cfu/gram, a Total plate count (wet distiller's grains, 1.0% CaO (w/w), day 6) of 120 cfu/gram and a Total plate count (wet distiller's grains, 1.0% CaO (w/w), day 8) of 320 cfu/gram. It also gave a Total plate count (wet distiller's grains, 1.0% CaO (w/w), day 10) of 4.70E+07 cfu/gram, a Total plate count (wet distiller's grains, 1.5% CaO (w/w), day 1) of 26200 cfu/gram and a Total plate count (wet distiller's grains, 1.5% CaO (w/w), day 2) of 110 cfu/gram. It also gave a Total plate count (wet distiller's grains, 1.5% CaO (w/w), day 3) of 40 cfu/gram, a Total plate count (wet distiller's grains, 1.5% CaO (w/w), day 6) of 90 cfu/gram and a Total plate count (wet distiller's grains, 1.5% CaO (w/w), day 8) of 730 cfu/gram. For the same molecule, the Total plate count (wet distiller's grains, 1.5% CaO (w/w), day 10) was 70 cfu/gram, the Total plate count (wet distiller's grains, 2.0% CaO (w/w), day 1) was 1090 cfu/gram and the Total plate count (wet distiller's grains, 2.0% CaO (w/w), day 2) was 130 cfu/gram. It also gave a Total plate count (wet distiller's grains, 2.0% CaO (w/w), day 3) of 130 cfu/gram, a Total plate count (wet distiller's grains, 2.0% CaO (w/w), day 6) of 340 cfu/gram and a Total plate count (wet distiller's grains, 2.0% CaO (w/w), day 8) of 180 cfu/gram. For the same molecule, the Total plate count (wet distiller's grains, 2.0% CaO (w/w), day 10) was 60 cfu/gram, the Total plate count (wet distiller's grains, 2.5% CaO (w/w), day 1) was 5300 cfu/gram and the Total plate count (wet distiller's grains, 2.5% CaO (w/w), day 2) was 60 cfu/gram. It also gave a Total plate count (wet distiller's grains, 2.5% CaO (w/w), day 3) of 240 cfu/gram, a Total plate count (wet distiller's grains, 2.5% CaO (w/w), day 6) of 90 cfu/gram and a Total plate count (wet distiller's grains, 2.5% CaO (w/w), day 7) of 10 cfu/gram. The Total plate count (wet distiller's grains, 2.5% CaO (w/w), day 8) was 150 cfu/gram, the Total plate count (wet distiller's grains, 2.5% CaO (w/w), day 10) was 50 cfu/gram and the Total plate count (wet distiller's grains, 2.5% CaO (w/w), day 14) was 74,000 cfu/gram. For the same molecule, the Total plate count (wet distiller's grains, 2.5% CaO (w/w), day 21) was 1,010,000 cfu/gram and the Total plate count (wet distiller's grains, 2.5% CaO (w/w), day 56) was 6,800,000 cfu/gram.

Source: US20120009280A1, “METHOD OF REDUCING THE RATE OF DEGRADATION OF A BIOLOGICAL MATERIAL” (Bio-Energy Ingredients Limited, priority 2009, published 2012)
